Assay results as given in US10561703B2, “Method of modulating sex hormone levels using a sex hormone secretion modulator” (GEMVAX & KAEL CO., LTD., priority 2013, dated 2020).

Test system: LH
Assay: LH level in blood (serum CLIA) after repeated sc PEP-1
Assay type: in vivo, SD rats
Experimental: PEP-1 (peptide of SEQ ID NO: 1), lyophilized white powder, obtained according to the method mentioned in example 1 was dissolved in 0.9% of saline, considering the correction factor of PEP-1 (purity: 94.13%, content: 92.36%, correction factor: 1.15). 50 mg/mL stock solution was further diluted into 20 mg/mL, 2 mg/mL, and 1 mg/mL with 0.9% saline, and stored at 4° C. for a week until the use.
The purpose of this example is to confirm the change of sexual hormones in blood from SD rats with 7 days repeated daily administration of SEQ ID NO: 1 peptide, PEP-1. This experiment followed the Ethics Regulation of Animal Test by KAMSI Inc. (Korea Animal Medical Science Institute). In addition, this experiment, Non-GLP experiment, referred to the MFDS (Ministry of Food and Drug Safety) notification; Agent 2013-40 (5th April 2013), Principles of Good Laboratory Practice (1997).
SPF Rats (Crlj:CD(SD)) were purchased from ORIENTBio Inc. (Mokdong-ri, Buk-myeon, Gapyeong-gun, Gyeonggi-do, Republic of Korea). 75 male (6.5 weeks old and 190˜210 g) and 75 female (6.5 weeks old and 160˜180 g) rats were monitored for 4 days, and 64 of male and female rats (each) were selected for the experiment. Raising condition is as follows; 23±3° C. of temperature, […] of relative humidity, 10˜20 times/hr of number of air changes, 12 hours (8 a.m.˜8 p.m.) of lighting with 150˜300 Lux of intensity.
64 male and female […] (mentioned above) were divided into 8 groups. Administration regimen, for example, drugs, routes, dosages, and volumes were as follows:
The detailed administration regimen is as follows; once a day, twice a day and twice a week in each experimental group. Injection initiated at 10 a.m. every day, and each rat was injected at one minute intervals. Rats in Group 9, 10, 13 and 14 were injected twice a week. Administration of high dose test agent preceded that of low dose. The volume of injection was calculated using recently measured weight of rats, and it was 5 mL/kg. Subcutaneous injection was performed as follows; assistant tilted the back of rat upward, and experimenter sterilized the back of rat with 70% alcohol, followed by subcutaneous injection of test agent with 26 G syringe.
1.4 mL of blood sample (0.7 mL of serum) was collected after measurement of weight (Day 0). Next day (1 Day), 1.4 mL of blood sample (0.7 mL of serum) was collected twice after injection of test agent (4 hrs and 8 hrs after administration of test agent). For next 6 days (Day 2˜Day 7), 1.4 mL of blood was extracted once everyday (4 hours after injection of test agent). Dose and volume of test agent of each group followed the Table 3, and injection time zone was same every day. Blood was extracted from the jugular vein, and left at room temperature for 30 minutes. Serum was separated using centrifugation (10,000 rpm for 5 minutes), and stored at −70±5° C. in Deep freezer until the use. Blood extraction from each subject was done in the same time zone every day.
A CLIA (Chemi-Luminescence Immune Assay) Kit was used to analyze Testosterone, Estradiol E2, FSH (Follicle stimulating hormone), and LH (Luteinizing hormone). Analysis was completed within 48 hrs after blood extraction (Laboratory Medicine Department, Chung-Ang University Hospital), and detailed method is as follows; One-way ANOVA was used to verify the comparison between the vehicle and PEP-1, and between different doses of PEP-1. For further analysis, Duncan test was used as parametric test and Dunnett's test as non-parametric test. p<0.05 represents the statistical significance, and all statistical analysis was carried out with SPSS 10.1.
LH was analyzed using the samples prepared from example 2. 50 μL of serum was used for analysis. Fundamentals of analysis is Two-site sandwich immunoassay based on direct chemi-luminescent. As mentioned in example 2, CLIA (Chemi-luminescence immune assay) Kit was used, following the manufacture's protocol.

EARPALLTSRLRFIPK (listed as Homo sapiens) [PEP-1, hormone secretion modulator / GnRH analog]
LH level in blood (G11 Male 100 mg/kg sc 1/day x7, 5 days): 0.19 mIU/mL
LH level in blood (G11 Male 100 mg/kg sc 1/day x7, 6 days): 0.21 mIU/mL
LH level in blood (G11 Male 100 mg/kg sc 1/day x7, 7 days): 0.21 mIU/mL
LH level in blood (G11 Male 100 mg/kg sc 1/day x7, pre): 0.1 mIU/mL
LH level in blood (G12 Female 100 mg/kg sc 1/day x7, 4 hr): 0.3 mIU/mL
LH level in blood (G12 Female 100 mg/kg sc 1/day x7, 8 hr): 0.17 mIU/mL
LH level in blood (G12 Female 100 mg/kg sc 1/day x7, 2 days): 0.22 mIU/mL
LH level in blood (G12 Female 100 mg/kg sc 1/day x7, 3 days): 0.22 mIU/mL
LH level in blood (G12 Female 100 mg/kg sc 1/day x7, 4 days): 0.23 mIU/mL
LH level in blood (G12 Female 100 mg/kg sc 1/day x7, 5 days): 0.23 mIU/mL
LH level in blood (G12 Female 100 mg/kg sc 1/day x7, 6 days): 0.28 mIU/mL
LH level in blood (G12 Female 100 mg/kg sc 1/day x7, 7 days): 0.27 mIU/mL
LH level in blood (G12 Female 100 mg/kg sc 1/day x7, pre): 0.13 mIU/mL
LH level in blood (G13 Male 100 mg/kg sc 2/week x2 (days 1,7), 4 hr): 1.52 mIU/mL
LH level in blood (G13 Male 100 mg/kg sc 2/week x2 (days 1,7), 8 hr): 0.21 mIU/mL
LH level in blood (G13 Male 100 mg/kg sc 2/week x2 (days 1,7), 2 days): 0.11 mIU/mL
LH level in blood (G13 Male 100 mg/kg sc 2/week x2 (days 1,7), 3 days): 0.11 mIU/mL
LH level in blood (G13 Male 100 mg/kg sc 2/week x2 (days 1,7), 4 days): 0.14 mIU/mL
LH level in blood (G13 Male 100 mg/kg sc 2/week x2 (days 1,7), 5 days): 0.13 mIU/mL
LH level in blood (G13 Male 100 mg/kg sc 2/week x2 (days 1,7), 6 days): 0.11 mIU/mL
LH level in blood (G13 Male 100 mg/kg sc 2/week x2 (days 1,7), 7 days): 0.99 mIU/mL
LH level in blood (G13 Male 100 mg/kg sc 2/week x2 (days 1,7), pre): 0.12 mIU/mL
LH level in blood (G14 Female 100 mg/kg sc 2/week x2 (days 1,7), 4 hr): 0.44 mIU/mL
LH level in blood (G14 Female 100 mg/kg sc 2/week x2 (days 1,7), 8 hr): 0.18 mIU/mL
LH level in blood (G14 Female 100 mg/kg sc 2/week x2 (days 1,7), 2 days): 0.17 mIU/mL
LH level in blood (G14 Female 100 mg/kg sc 2/week x2 (days 1,7), 3 days): 0.14 mIU/mL
LH level in blood (G14 Female 100 mg/kg sc 2/week x2 (days 1,7), 4 days): 0.09 mIU/mL
LH level in blood (G14 Female 100 mg/kg sc 2/week x2 (days 1,7), 5 days): 0.12 mIU/mL
LH level in blood (G14 Female 100 mg/kg sc 2/week x2 (days 1,7), 6 days): 0.11 mIU/mL
LH level in blood (G14 Female 100 mg/kg sc 2/week x2 (days 1,7), 7 days): 0.57 mIU/mL
LH level in blood (G14 Female 100 mg/kg sc 2/week x2 (days 1,7), pre): 0.12 mIU/mL
LH level in blood (G15 Male 250 mg/kg sc 1/day x7, 4 hr): 1.4 mIU/mL
LH level in blood (G15 Male 250 mg/kg sc 1/day x7, 8 hr): 0.29 mIU/mL
LH level in blood (G15 Male 250 mg/kg sc 1/day x7, 2 days): 0.28 mIU/mL
LH level in blood (G15 Male 250 mg/kg sc 1/day x7, 3 days): 0.2 mIU/mL
LH level in blood (G15 Male 250 mg/kg sc 1/day x7, 4 days): 0.19 mIU/mL
LH level in blood (G15 Male 250 mg/kg sc 1/day x7, 5 days): 0.2 mIU/mL
LH level in blood (G15 Male 250 mg/kg sc 1/day x7, 6 days): 0.21 mIU/mL
LH level in blood (G15 Male 250 mg/kg sc 1/day x7, 7 days): 0.23 mIU/mL
LH level in blood (G15 Male 250 mg/kg sc 1/day x7, pre): 0.12 mIU/mL
LH level in blood (G16 Female 250 mg/kg sc 1/day x7, 4 hr): 0.42 mIU/mL
LH level in blood (G16 Female 250 mg/kg sc 1/day x7, 8 hr): 0.2 mIU/mL
LH level in blood (G16 Female 250 mg/kg sc 1/day x7, 2 days): 0.23 mIU/mL
LH level in blood (G16 Female 250 mg/kg sc 1/day x7, 3 days): 0.22 mIU/mL
LH level in blood (G16 Female 250 mg/kg sc 1/day x7, 4 days): 0.23 mIU/mL
LH level in blood (G16 Female 250 mg/kg sc 1/day x7, 5 days): 0.26 mIU/mL
LH level in blood (G16 Female 250 mg/kg sc 1/day x7, 6 days): 0.28 mIU/mL
LH level in blood (G16 Female 250 mg/kg sc 1/day x7, 7 days): 0.28 mIU/mL
LH level in blood (G16 Female 250 mg/kg sc 1/day x7, pre): 0.11 mIU/mL
Effect on LH secretion (male and female): seems to stimulate the LH secretion
LH level (male, 4 hrs, all groups but vehicle, before administration 0.1 mIU/mL): 0.5-1.5 mIU/mL
